“And” between values parts separate entries of the source, which are not always exact repeats. Equal entries are not always repeated.
Conditions: for vapor or sublimation pressure: Closed cell (Static) method

COC(F)(F)F [trifluoromethoxymethane]
Gas, Burnett expansion method
Conditions | mass density [kg/m3]
320 K, 421.5 kPa | 17.3
320 K, 570.4 kPa | 24.28
320 K, 604.9 kPa | 25.98
320 K, 802.9 kPa | 36.45
320 K, 847.1 kPa | 38.98
330 K, 137.5 kPa | 5.133
330 K, 188.9 kPa | 7.099
330 K, 203.7 kPa | 7.696
330 K, 280.6 kPa | 10.75
330 K, 300.2 kPa | 11.55
330 K, 410.7 kPa | 16.13
330 K, 437.5 kPa | 17.29
330 K, 594.3 kPa | 24.27
330 K, 630.6 kPa | 25.96
330 K, 841.9 kPa | 36.48
330 K, 889 kPa | 38.98
340 K, 141.7 kPa | 5.126
340 K, 195.8 kPa | 7.136
340 K, 210.4 kPa | 7.694
340 K, 310.5 kPa | 11.54
340 K, 425.6 kPa | 16.13
340 K, 453.5 kPa | 17.28
340 K, 655.6 kPa | 25.94
340 K, 879.5 kPa | 36.45
340 K, 929.4 kPa | 38.95
340 K, 1216.9 kPa | 54.78
340 K, 1278.5 kPa | 58.56
340 K, 1605.8 kPa | 82.06
350 K, 146.2 kPa | 5.127
350 K, 202.9 kPa | 7.174
350 K, 217 kPa | 7.688
350 K, 299.5 kPa | 10.74
350 K, 320.6 kPa | 11.53
350 K, 469.2 kPa | 17.27
350 K, 640.8 kPa | 24.25
350 K, 680.3 kPa | 25.92
350 K, 969 kPa | 38.92
350 K, 1277.1 kPa | 54.75
350 K, 1343.5 kPa | 58.5
350 K, 1709.6 kPa | 82.31
350 K, 1782.8 kPa | 87.93
360 K, 150.4 kPa | 5.122
360 K, 208.1 kPa | 7.139
360 K, 223.5 kPa | 7.683
360 K, 330.6 kPa | 11.52
360 K, 455 kPa | 16.13
360 K, 484.7 kPa | 17.25
360 K, 704.6 kPa | 25.9
360 K, 952.6 kPa | 36.41
360 K, 1007.9 kPa | 38.88
360 K, 1335.8 kPa | 54.71
360 K, 1406.7 kPa | 58.43
360 K, 1807.1 kPa | 82.26
360 K, 1888.4 kPa | 87.85
360 K, 2309 kPa | 123.6
360 K, 2385.4 kPa | 132
370 K, 154.7 kPa | 5.117
370 K, 215.6 kPa | 7.182
370 K, 230 kPa | 7.677
370 K, 318.3 kPa | 10.73
370 K, 340.6 kPa | 11.52
370 K, 500.1 kPa | 17.24
370 K, 686.1 kPa | 24.23
370 K, 728.8 kPa | 25.88
370 K, 1046.2 kPa | 38.85
370 K, 1393.4 kPa | 54.67
370 K, 1468.6 kPa | 58.37
370 K, 1901.8 kPa | 82.19
370 K, 1990.6 kPa | 87.72
370 K, 2469.3 kPa | 123.6
370 K, 2559 kPa | 132
370 K, 2970.3 kPa | 185.3
370 K, 3031.6 kPa | 197.4
380 K, 147.8 kPa | 4.751
380 K, 158.9 kPa | 5.114
380 K, 220.5 kPa | 7.14
380 K, 236.5 kPa | 7.671
380 K, 327.6 kPa | 10.73
380 K, 350.5 kPa | 11.51
380 K, 483.9 kPa | 16.12
380 K, 515.4 kPa | 17.23
380 K, 708.4 kPa | 24.22
380 K, 752.6 kPa | 25.86
380 K, 1023.5 kPa | 36.37
380 K, 1084 kPa | 38.82
380 K, 1450 kPa | 54.63
380 K, 1529.5 kPa | 58.32
380 K, 1994.4 kPa | 82.12
380 K, 2092.4 kPa | 87.73
380 K, 2624.1 kPa | 123.5
380 K, 2726.4 kPa | 131.8
380 K, 3233.6 kPa | 185.9
380 K, 3316.9 kPa | 198.3
380 K, 3647 kPa | 276.7
380 K, 3686.3 kPa | 294.2
380 K, 3776.4 kPa | 381.1
380 K, 3786.4 kPa | 439.7

Conditions | mass density [kg/m3]
320 K, 449.1 kPa, Gas | 18.62
320 K, 634.7 kPa, Gas | 27.54
320 K, 968.5 kPa, Gas | 46.37
320 K, 1046.3 kPa, Liquid | 1013.52
320 K, 1081.4 kPa, Liquid | 1013.85
320 K, 1117.7 kPa, Liquid | 1014.21
320 K, 1512.4 kPa, Liquid | 1017.85
320 K, 1515.2 kPa, Liquid | 1018.55
320 K, 2029.1 kPa, Liquid | 1023.1
320 K, 2036.4 kPa, Liquid | 1022.49
320 K, 2520.5 kPa, Liquid | 1026.61
320 K, 2529.1 kPa, Liquid | 1027.35
320 K, 3012.2 kPa, Liquid | 1031.29
320 K, 3050.4 kPa, Liquid | 1030.92
320 K, 3512.7 kPa, Liquid | 1035.21
320 K, 3595.2 kPa, Liquid | 1035.17
320 K, 4030.7 kPa, Liquid | 1039.11
320 K, 4131.4 kPa, Liquid | 1039.19
320 K, 4518.5 kPa, Liquid | 1042.67
320 K, 4616.1 kPa, Liquid | 1042.69
320 K, 5039.6 kPa, Liquid | 1046.35
320 K, 5136.9 kPa, Liquid | 1046.33
320 K, 5518 kPa, Liquid | 1049.62
320 K, 5652.1 kPa, Liquid | 1049.82
320 K, 6055.9 kPa, Liquid | 1053.18
320 K, 6201.4 kPa, Liquid | 1053.41
320 K, 6522.4 kPa, Liquid | 1056.19
320 K, 6721.8 kPa, Liquid | 1056.72
320 K, 6877.8 kPa, Liquid | 1058.42
320 K, 7175.8 kPa, Liquid | 1059.52
330 K, 72.1 kPa, Gas | 2.7
330 K, 106.1 kPa, Gas | 3.97
330 K, 155.7 kPa, Gas | 5.88
330 K, 227.6 kPa, Gas | 8.7
330 K, 330.5 kPa, Gas | 12.87
330 K, 475.1 kPa, Gas | 19.02
330 K, 674.2 kPa, Gas | 28.13
330 K, 936.5 kPa, Gas | 41.69
330 K, 1364.9 kPa, Liquid | 972.53
330 K, 1414.6 kPa, Liquid | 973.15
330 K, 1458.1 kPa, Liquid | 973.66
330 K, 2087 kPa, Liquid | 981.1
330 K, 2555.2 kPa, Liquid | 986.24
330 K, 3114.9 kPa, Liquid | 992.08
330 K, 3553.8 kPa, Liquid | 996.38
330 K, 4105.6 kPa, Liquid | 1001.58
330 K, 4643.4 kPa, Liquid | 1006.39
330 K, 5117 kPa, Liquid | 1010.47
330 K, 5639.1 kPa, Liquid | 1014.76
330 K, 6168.6 kPa, Liquid | 1018.96
330 K, 6739.6 kPa, Liquid | 1023.31
330 K, 7155.4 kPa, Liquid | 1026.38
340 K, 1691.6 kPa, Liquid | 925.88
340 K, 1704.5 kPa, Liquid | 926.14
340 K, 1776.3 kPa, Liquid | 927.36
340 K, 2059.3 kPa, Liquid | 932.03
340 K, 2582.2 kPa, Liquid | 940.1
340 K, 3081.7 kPa, Liquid | 947.17
340 K, 3596.1 kPa, Liquid | 953.91
340 K, 4130.8 kPa, Liquid | 960.48
340 K, 4614 kPa, Liquid | 966.04
340 K, 5146.7 kPa, Liquid | 971.84
340 K, 5642.7 kPa, Liquid | 976.95
340 K, 6163.1 kPa, Liquid | 982.05
340 K, 6711.6 kPa, Liquid | 987.19
340 K, 7112.6 kPa, Liquid | 990.78
350 K, 2091.1 kPa, Liquid | 872.23
350 K, 2104.3 kPa, Liquid | 872.59
350 K, 2141.2 kPa, Liquid | 873.54
350 K, 2548.5 kPa, Liquid | 883.49
350 K, 3078 kPa, Liquid | 894.77
350 K, 3561.7 kPa, Liquid | 903.94
350 K, 4061.4 kPa, Liquid | 912.5
350 K, 4604.4 kPa, Liquid | 920.96
350 K, 5110.9 kPa, Liquid | 928.26
350 K, 5614.7 kPa, Liquid | 935
350 K, 6145.6 kPa, Liquid | 941.66
350 K, 6708.6 kPa, Liquid | 948.27
350 K, 7180.7 kPa, Liquid | 953.51
360 K, 2566.6 kPa, Liquid | 806.04
360 K, 2595.3 kPa, Liquid | 807.47
360 K, 2674 kPa, Liquid | 811
360 K, 3046.9 kPa, Liquid | 825.94
360 K, 3567.7 kPa, Liquid | 842.69
360 K, 4099.1 kPa, Liquid | 856.85
360 K, 4614.4 kPa, Liquid | 868.64
360 K, 5110 kPa, Liquid | 878.67
360 K, 5611.7 kPa, Liquid | 887.84
360 K, 6201.7 kPa, Liquid | 897.63
360 K, 6215.7 kPa, Liquid | 897.87
360 K, 6705.8 kPa, Liquid | 905.3
360 K, 7100.8 kPa, Liquid | 910.94
370 K, 3130.2 kPa, Liquid | 712.6
370 K, 3147.8 kPa, Liquid | 715.08
370 K, 3586 kPa, Liquid | 754.94
370 K, 4068.1 kPa, Liquid | 781.44
370 K, 4642.5 kPa, Liquid | 804.25
370 K, 5159.1 kPa, Liquid | 820.53
370 K, 5641.4 kPa, Liquid | 833.56
370 K, 6176.7 kPa, Liquid | 846.09
370 K, 6712.7 kPa, Liquid | 857.24
370 K, 7155.1 kPa, Liquid | 865.58
380 K, 345.8 kPa, Gas | 11.4
380 K, 411.6 kPa, Gas | 13.64
380 K, 637.2 kPa, Gas | 21.72
380 K, 1069 kPa, Gas | 38.43
380 K, 1190.9 kPa, Gas | 43.52
380 K, 1736.8 kPa, Gas | 68.74
380 K, 2282.2 kPa, Gas | 99.68
380 K, 2913 kPa, Gas | 148.72
380 K, 3383.7 kPa, Gas | 207.93
380 K, 3672.6 kPa, Gas | 287.87
380 K, 3791.1 kPa, Gas | 430.78
380 K, 3807.7 kPa, Liquid | 489.63
380 K, 4003.4 kPa, Liquid | 629
380 K, 4596.7 kPa, Liquid | 707.34
380 K, 5159.5 kPa, Liquid | 743.66
380 K, 5653.6 kPa, Liquid | 766.09
380 K, 6175.8 kPa, Liquid | 785.18
380 K, 6672.5 kPa, Liquid | 800.32
380 K, 7138.9 kPa, Liquid | 812.7

Liquid
Conditions | mass density | vapor or sublimation pressure
320 K | 1013.47 kg/m3 and 1014.09 kg/m3 | 1038.1 kPa and 1038.5 kPa and 1038.4 kPa
325 K | – | 1175.7 kPa
330 K | 972.09 kg/m3 and 973.36 kg/m3 and 973.37 kg/m3 | 1325.7 kPa and 1325.6 kPa
335 K | – | 1489.7 kPa
340 K | 925.57 kg/m3 | 1668.8 kPa and 1668.5 kPa and 1670.2 kPa
345 K | – | 1863.6 kPa
350 K | 871.95 kg/m3 | 2074.9 kPa and 2075 kPa and 2071.7 kPa
355 K | – | 2304.3 kPa
360 K | 805.64 kg/m3 | 2553.1 kPa and 2553.8 kPa and 2554.9 kPa
365 K | – | 2823.3 kPa
370 K | 711.78 kg/m3 | 3116.4 kPa and 3117.3 kPa and 3117.1 kPa
375 K | – | 3435.7 kPa

From the NIST ThermoML archive (doi:10.1021/je025657+)
